Measurements published in patent EP0354453A2, “Antimicrobial agent for animals” (priority 1988, dated 1990).
Values after ≈ are worked out from the molar mass of the structure shown.

Assays:
Escherichia coli 164 = assay: in vitro antimicrobial activity (MIC), agar dilution, Part 1; format: cell-based; conditions: Escherichia coli 164, Pig; Mueller Hinton agar, 37°C, 18-24 hours
Description: (§1) Test microorganisms listed in Table 2 were cultured overnight in heart infusion nutrient broth (produced by Eiken Chemical Co., Ltd.). Culture broth containing about 10⁸/ml cells was diluted to a volume of 100 times. An aliquot (about 0.05 ml) of the diluted broth was inoculated onto a Mueller Hinton agar plate (produced by Eiken Chemical Co., Ltd.) to which Compound No. 1 was added in a prescribed concentration. […]

[1] = system: Staphylococcus aureus Aichi 2; assay: as above; format: cell-based; conditions: AICHI2; Staphylococcus aureus Aichi 2, Chicken; Mueller Hinton agar, 37°C, 18-24 hours
Description: as §1

[2] = system: Bordetella bronchiaseptica AR3; assay: as above; format: cell-based; conditions: Bordetella bronchiaseptica AR3, Pig; Mueller Hinton agar, 37°C, 18-24 hours
Description: as §1

Escherichia coli 442 = assay: as above; format: cell-based; conditions: Escherichia coli 442, Chicken; Mueller Hinton agar, 37°C, 18-24 hours
Description: as §1

Escherichia coli 15-4 = assay: as above; format: cell-based; conditions: 154; Escherichia coli 15-4, Cow; Mueller Hinton agar, 37°C, 18-24 hours
Description: as §1

[3] = system: Salmonella typhimurium 595; assay: as above; format: cell-based; conditions: Salmonella enterica; Salmonella typhimurium 595, Pig; Mueller Hinton agar, 37°C, 18-24 hours
Description: as §1

[4] = system: Salmonella typhimurium 101; assay: as above; format: cell-based; conditions: Salmonella enterica; Salmonella typhimurium 101, Chicken; Mueller Hinton agar, 37°C, 18-24 hours
Description: as §1

Mycoplasma gallisepticum = assay: Effect of oral administration on chicken inoculated with Mycoplasma gallisepticum; format: in vivo; conditions: for Chickens developing disease in air sac (naked eye observation) / No. of dead chickens: 5 tested chickens
Description: Mycoplasma gallisepticum cells collected from chickens having respiratory Mycoplasma infection were cultured for 3 days in a Frey liquid media for Mycoplasma. 0.2 ml of this culture broth was injected into the trachea of chickens of an average body weight of 80 g using a 1 ml disposable injection needle. Beginning from the next day following the inoculation, feeds to which Compound (1) had been added in the amount of 100 ppm, 75 ppm, or 50 ppm were freely given to the chickens for 5 days. Following the administration of Compound (1) the chickens were given feed containing no drug for a further 5 days. The surviving chickens were sacrificed and dissected. After examination of the degree of disease in the air sac, Mycoplasma gallisepticum in the infraorbital sinus, trachea, lung, and air sac were determined. […] TABLE 6 […]

Escherichia coli = assay: Effect of oral administration on chicken inoculated with Escherichia coli; format: in vivo; conditions: for Chickens developing disease in air sac (naked eye observation) / No. of dead chickens: 5 tested chickens
Description: Escherichia coli cells collected from infected chicken were cultured overnight in a trypticase soy broth (BBL). 0.2 ml of this culture broth was injected into the trachea of chickens of average body weight of 80 g using a 1 ml disposable injection needle. Beginning 2 hours after the inoculation, feeds to which Compound (1) had been added in the amount of 50 ppm, 25 ppm, or 12.5 ppm were freely given to the chickens for 5 days. Following the administration of Compound (1) the chickens were given feed with no addition of drug for 5 days. The surviving chickens were sacrificed and dissected. After examination of the degree of disease in the air sac, Escherichia coli in the trachea, lung, and air sac were quantitatively determined. […]

MIC (Escherichia coli 164): 0.1 µg/mL (≈ 0.277 µM)
MIC [1]: 0.2 µg/mL (≈ 0.553 µM)
MIC [2]: 0.39 µg/mL (≈ 1.08 µM)
MIC (Escherichia coli 442): 0.05 µg/mL (≈ 0.138 µM)
MIC (Escherichia coli 15-4): 0.1 µg/mL (≈ 0.277 µM)
MIC [3]: 0.1 µg/mL (≈ 0.277 µM)
MIC [4]: 0.05 µg/mL (≈ 0.138 µM)
Structure (SMILES): CC1COc2c(N3CCN(C)CC3)c(F)cc3c(=O)c(C(=O)O)cn1c23 (racemic) [Ofloxacin, reference compound]
Mycoplasma gallisepticum collected in Air sac (Mycoplasma gallisepticum; 50 ppm in feed for 5 days): 3.70 Logarithmic number of collected cells per 1 g of tissue
Mycoplasma gallisepticum collected in Infraorbital sinus (Mycoplasma gallisepticum; 50 ppm in feed for 5 days): 1/5
Mycoplasma gallisepticum collected in Lung (Mycoplasma gallisepticum; 50 ppm in feed for 5 days): 4.78 Logarithmic number of collected cells per 1 g of tissue
Mycoplasma gallisepticum collected in Trachea (Mycoplasma gallisepticum; 50 ppm in feed for 5 days): 3.64 Logarithmic number of collected cells per 1 g of tissue
Chickens developing disease in air sac (naked eye observation) (Mycoplasma gallisepticum; 50 ppm in feed for 5 days): 1
No. of dead chickens (Mycoplasma gallisepticum; 50 ppm in feed for 5 days): 0
Mycoplasma gallisepticum collected in Air sac (Mycoplasma gallisepticum; 75 ppm in feed for 5 days): 0 Logarithmic number of collected cells per 1 g of tissue
Mycoplasma gallisepticum collected in Infraorbital sinus (Mycoplasma gallisepticum; 75 ppm in feed for 5 days): 0/5
Mycoplasma gallisepticum collected in Lung (Mycoplasma gallisepticum; 75 ppm in feed for 5 days): 4.00 Logarithmic number of collected cells per 1 g of tissue
Mycoplasma gallisepticum collected in Trachea (Mycoplasma gallisepticum; 75 ppm in feed for 5 days): 3.82 Logarithmic number of collected cells per 1 g of tissue
Chickens developing disease in air sac (naked eye observation) (Mycoplasma gallisepticum; 75 ppm in feed for 5 days): 0
No. of dead chickens (Mycoplasma gallisepticum; 75 ppm in feed for 5 days): 0
Mycoplasma gallisepticum collected in Air sac (Mycoplasma gallisepticum; 100 ppm in feed for 5 days): 0 Logarithmic number of collected cells per 1 g of tissue
Mycoplasma gallisepticum collected in Infraorbital sinus (Mycoplasma gallisepticum; 100 ppm in feed for 5 days): 0/5
Mycoplasma gallisepticum collected in Lung (Mycoplasma gallisepticum; 100 ppm in feed for 5 days): 0 Logarithmic number of collected cells per 1 g of tissue
Mycoplasma gallisepticum collected in Trachea (Mycoplasma gallisepticum; 100 ppm in feed for 5 days): 0 Logarithmic number of collected cells per 1 g of tissue
Chickens developing disease in air sac (naked eye observation) (Mycoplasma gallisepticum; 100 ppm in feed for 5 days): 0
No. of dead chickens (Mycoplasma gallisepticum; 100 ppm in feed for 5 days): 0
Escherichia coli collected in Air sac (Escherichia coli; 12.5 ppm in feed for 5 days): 4.20 Logarithmic number of collected cells per 1 g of tissue
Escherichia coli collected in Lung (Escherichia coli; 12.5 ppm in feed for 5 days): 5.26 Logarithmic number of collected cells per 1 g of tissue
Escherichia coli collected in Trachea (Escherichia coli; 12.5 ppm in feed for 5 days): 7.48 Logarithmic number of collected cells per 1 g of tissue
Chickens developing disease in air sac (naked eye observation) (Escherichia coli; 12.5 ppm in feed for 5 days): 3
No. of dead chickens (Escherichia coli; 12.5 ppm in feed for 5 days): 2
Escherichia coli collected in Air sac (Escherichia coli; 25 ppm in feed for 5 days): 3.90 Logarithmic number of collected cells per 1 g of tissue
Escherichia coli collected in Lung (Escherichia coli; 25 ppm in feed for 5 days): 1.86 Logarithmic number of collected cells per 1 g of tissue
Escherichia coli collected in Trachea (Escherichia coli; 25 ppm in feed for 5 days): 4.58 Logarithmic number of collected cells per 1 g of tissue
Chickens developing disease in air sac (naked eye observation) (Escherichia coli; 25 ppm in feed for 5 days): 3
No. of dead chickens (Escherichia coli; 25 ppm in feed for 5 days): 1
Escherichia coli collected in Air sac (Escherichia coli; 50 ppm in feed for 5 days): 0 Logarithmic number of collected cells per 1 g of tissue
Escherichia coli collected in Lung (Escherichia coli; 50 ppm in feed for 5 days): 0 Logarithmic number of collected cells per 1 g of tissue
Escherichia coli collected in Trachea (Escherichia coli; 50 ppm in feed for 5 days): 0 Logarithmic number of collected cells per 1 g of tissue
Chickens developing disease in air sac (naked eye observation) (Escherichia coli; 50 ppm in feed for 5 days): 2
No. of dead chickens (Escherichia coli; 50 ppm in feed for 5 days): 1
